# Measured values from patent publication US20240000950A1, “THERAPEUTIC CURE-PRO COMPOUNDS FOR TARGETED DEGRADATION OF BET DOMAIN PROTEINS, AND METHODS OF MAKING AND USING THEM” (CORNELL UNIVERSITY, priority 2020, published 2024).
# What was measured:
# [1] = test system: SLC19A1; test: Suppression of the c-MYC downstream target gene SLC19A1, RT-PCR in HeLa cells; assay type: cell-based, Human; details: 24 h
# Protocol: The suppression of the expression of the downstream c-MYC target, SLC19A1, was measured by RT-PCR using Power SYBR® Green Cells-to-Ct™ Kit (Life Technologies). Adherent cells were plated on 96 well plates at 5,000 cells per well were treated for 24 h with monomer compounds and compounds capable of reversible interactions (1 nM-100 μM). Cells were subsequently washed in ice-cold PBS processed according to the manufacturer's instructions. Quantitative real-time PCR was performed using a ViiA™ 7 Real-time PCR System (Applied Biosystems, Foster City, CA, USA). GAPDH and ACTB served as internal controls. The primers used were (5′-3′): GAPDH-F: AGCCACATCGCTCAGACAC (SEQ ID NO:9), GAPDH-R: GCCCAATACGACCAAATCC (SEQ ID NO:10), ACTB-F: CCAACCGCGAGAAGATGA (SEQ ID NO:11), ACTB-R: […] (SEQ ID NO:12), SLC19A1-F: […] (SEQ ID NO:13), SLC19A1-R: […] (SEQ ID NO:14).
# HeLa cells (1×104) were treated for 24 hours in 96 well plates with the compounds solubilized in DMSO. Compounds were added at 10 μM each and RNA expression measured by the Cells-to Ct method described above (Thermofisher).
# [2] = molecular target: T1, BRD4 (Homo sapiens, UniProt O60885); test: Summary of E3 ligase directed degradation of BRD4, estimated from Western Blot or WES (Tables 1-6); assay type: cell-based; set-up: endogenous in cells; host or cells: HeLa, MCF7 or HCT116; details: for Degradation of BRD4, combination with CRBN ligand [drawing 421]: CRBN ligand drawn as drawing 421 (by the text apparently 8047); for Degradation of BRD4, combination with CRBN ligand [drawing 422]: CRBN ligand drawn as drawing 422 (by the text apparently 8066)
# How it was run: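 HeLa, MCF7 or HCT116 cells treated 24 h with compounds in DMSO, lysed in RIPA buffer; BRD4 levels read by Western blot (ECL detection) or capillary WES with HRP detection. Check mark denotes 30% to 70% or higher protein degradation.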
# [3] = molecular target: T1, BRD4; test: CURE-PRO-mediated BRD4 degradation in HeLa cells, Western blot; assay type: cell-based; set-up: endogenous in cells; host or cells: HeLa; details: 24 h
# Protocol: (§1) All cell lines were purchased from ATCC or DSMZ and grown at 37° C. with 5% C02. Human HeLa cells were cultured in complete growth medium (Dulbecco's modified Eagle's medium (DMEM) supplemented with 10% FBS); MCF7 cells were cultured in complete growth medium (Dulbecco's modified Eagle's medium (DMEM) supplemented with 10% FBS and 0.01 mg/ml human recombinant insulin (Sigma Aldrich); Namalwa and MOLM-13 cells were cultured in complete growth medium (RPMI 1640 medium supplemented with 10% FBS); MV-4-11 were cultured in complete growth medium (Iscove's Modified Dulbecco's medium, supplemented with 10% FBS); HCT116 cells were cultured in complete growth medium (McCoy's 5a Medium supplemented with 10% FBS). For cellular degradation of BRD4 studies, cells were seeded in a 12-well plate at 70-80% confluency, allowed to attach overnight, and incubated with the indicated compounds for the indicated time. When indicated, a 15-minute pretreatment with 10 μM pomalidomide, 10 μM VHL298, 10 μM Nutlin3a, 1 μM MG-132 or 1 μM Carfilzomib was performed before the addition of CURE-PROs. For washout studies, after CURE-PRO treatment, media was aspirated and incubated with complete medium for the indicated time before lysis.
# (§2) Anti-BRD4 (13440, 1:1,000 dilution for Western Blot and 1:25 dilution for ProteinSimple); Anti-BRD2 (5848 1:1,000 dilution for Western Blot and 1:25 dilution for ProteinSimple); β-Actin (3700, 1:2,000 dilution for Western Blot), β-Actin (4970, 1:50 dilution for ProteinSimple) anti-mouse IgG-HRP, and anti-rabbit IgG-HRP antibodies were purchased Cell Signaling Technology. Anti-GAPDH (600-401-A33, 1:100 dilution for ProteinSimple) was purchased from Rockland Immunochemicals, Inc. Anti-BRD3 (sc-81202, 1:200 dilution for Western Blot) was purchased from Santa Cruz Biotechnology.
# HeLa, MCF7, or HCT116 cells (2.5-3×10^6) were treated for 24 hours with the indicated compounds solubilized in DMSO. The cells were washed in ice-cold PBS and were then lysed in RIPA lysis buffer (150 mM NaCl, 5 mM EDTA, 1% NP-40, 0.5% sodium deoxycholate, 0.1% SDS, 50 mM Tris, pH 8.0) with Roche protease inhibitor complete cocktail and phosphatase inhibitors (10 mM sodium fluoride, 10 mM sodium pyrophosphate, 1 mM sodium orthovanadate and 20 mM β-glycerophosphate). The total protein concentrations were determined by Bradford Protein Assay and 10-20 μg of protein was loaded onto 4-15% Tris-Glycine gradient gels (Biorad). After standard gel electrophoresis, the separated proteins were transferred to PVDF membrane by wet transfer. The immunoblots were then blocked for 1 hour in 5% skim milk in TBST or 5% BSA in TBST, according to manufacturer's instructions, before an overnight incubation at 4° C. with indicated antibodies and membranes. Membranes were then incubated with the appropriate horseradish peroxidase-conjugated secondary antibodies (1:5,000 dilution) for 1 h at room temperature and the bands were visualized using the Clarity Max Western ECL Substrate (Biorad) and the ChemiDoc Imaging System (Biorad). Signal was detected with ECL Western Blotting Substrate (Pierce) and X-ray film processed with a Konica SRX-101 X-ray film processor or captured by Bio-Rad's Chemidoc Imaging system.
# HeLa cells (2.5×10^6) were treated for 24 hours with the sample compounds solubilized in DMSO. Compounds were added at 1-10 μM each. Standardized protein samples were electrophoresed and imaged as described in the immunoblotting description above. FIGS. 6-18 depicts the CURE-PRO-mediated BRD4 degradation for BRD monomers (JQ1 derivatives comprising of catechol linkers), and CRBN ligands, 8048 and 8049 (pomalidomide derivatives comprising boronic acid linkers) combined in a 1:1 ratio.
# HeLa cells (2.5×10^6) were treated for 24 hours with the compounds solubilized in DMSO. The compounds were added at 10 μM each. Standardized protein samples were electrophoresed and imaged as described in the immunoblotting section above. […]
# [4] = molecular target: T1, BRD4; test: CURE-PRO-mediated BRD4 degradation in HeLa cells, WES capillary electrophoresis (ProteinSimple); assay type: cell-based; set-up: endogenous in cells; host or cells: HeLa; details: for BRD4 degradation: 24 h, co-dosed with CRBN ligand 8047, 100 nM-10 μM each
# Protocol: as §1, §2
# WES Simple analysis was performed on WES system (ProteinSimple-Biotechne) according to the manufacturer's instructions. Total protein concentrations of cell lysates were determined by the Pierce BCA kit (Thermo Fisher). 3 μL of 0.3 μg/uL of the protein lysate was loaded onto a 12- to 230-kDa WES assay plate (ProteinSimple) where 300 nL sample was withdrawn through a capillary, subjected to electrophoretic separation of proteins by size, and followed by the simultaneous, HRP-based detection of proteins using the Anti-Rabbit Detection Module (Proteinsimple: #DM-001). The electropherograms were checked then the automatic peak detection was manually corrected if it was required.
# HeLa cells (2.5×10^6) were treated for 4-24 hours with the compounds solubilized in DMSO. After 4 hours, indicated points were washed and cells were left in full growth media. Compounds were added at 10 μM each. […]
# [5] = molecular target: T1, BRD4; test: BRD protein family degradation in HCT116 cells with MDM2 ligands, Western blot: BRD4; assay type: cell-based; set-up: endogenous in cells; host or cells: HeLa, MCF7 or HCT116; details: 24 h, with MDM2 ligands 8310 / 8312
# Protocol: as §1, with “When indicated, a 15-minute pretreatment with 10 μM pomalidomide, 10 μM VHL298, 10 μM Nutlin3a, 1 μM MG-132 or 1 μM Carfilzomib was performed before the addition of CURE-PROs. For washout studies, after CURE-PRO treatment, media was aspirated and incubated with complete medium for the indicated time before lysis.” left out
# HeLa, MCF7, or HCT116 cells (2.5-3×10^6) were treated for 24 hours with the indicated compounds solubilized in DMSO. […] The total protein concentrations were determined by Bradford Protein Assay and 10-20 μg of protein was loaded onto 4-15% Tris-Glycine gradient gels (Biorad). […] Signal was detected with ECL Western Blotting Substrate (Pierce) and X-ray film processed with a Konica SRX-101 X-ray film processor or captured by Bio-Rad's Chemidoc Imaging system. […]
smiles,measurement,setting,value
"Cc1sc2c(c1C)C(c1ccc(Cl)cc1)=N[C@@H](CC(=O)Nc1ccc(OCCOCCOCCOCCNc3cccc4c3C(=O)N(C3CCC(=O)NC3=O)C4=O)cc1)c1nnc(C)n1-2 (stereo partly shown) [ARV-825, reference compound]",suppression of SLC19A1 expression,"[1]; 10 μM, single agent",Complete suppression of SLC19A1 was evident
"CCNC(=O)C[C@@H]1N=C(c2ccc(Sc3cccc(B(O)O)c3)cc2)c2cc(OC)ccc2-n2c(C)nnc21 [BRD-E52, (3-((4-((4S)-4-(2-(ethylamino)-2-oxoethyl)-8-methoxy-1-methyl-4H-benzo[f][1,2,4]triazolo[4,3-a][1,4]diazepin-6-yl)phenyl)thio)phenyl)boronic acid]","Degradation of BRD4, combination with CRBN ligand [drawing 421]",[2]; Table 1,✓ (A black check mark indicates efficacy of 30% to 70% or higher protein degradation)
same,"Degradation of BRD4, combination with CRBN ligand [drawing 422]",[2]; Table 1,✓ (A black check mark indicates efficacy of 30% to 70% or higher protein degradation)
same,BRD4 degradation with pomalidomide and the BRD ligand (no 8047),[3]; 10 μM,failed to induce BRD4 degradation
same,BRD4 degradation after preincubation with pomalidomide,"[3]; 10 μM, 1:1 with CRBN ligand 8047, pomalidomide preincubated 15 min at equimolar concentration",inhibition of CURE-PRO-mediated BRD4 degradation
same,"BRD4 degradation, time dependence and washout","[4]; 4-24 h, 10 μM each, co-dosed with CRBN ligand 8047, washed after 4 h",marked BRD4 degradation after 4 h with sustained degradation for up to 8 h after drugs are washed out
same,BRD4 degradation,[4],marked BRD4 degradation
"CCNC(=O)C[C@@H]1N=C(c2ccc(Sc3ccccc3)cc2)c2cc(OC)ccc2-n2c(C)nnc21 [BRD-E52C, N-ethyl-2-((4S)-8-methoxy-1-methyl-6-(4-(phenylthio)phenyl)-4H-benzo[f][1,2,4]triazolo[4,3-a][1,4]diazepin-4-yl)acetamide]",BRD4 degradation,[4],failed to induce degradation even at 10 μM
"CCNC(=O)C[C@@H]1N=C(c2ccc(Cl)cc2)c2cc(OCCCCCCNC(=O)c3ccc(B(O)O)cc3)ccc2-n2c(C)nnc21 [BRD-E79, (4-((6-(((4S)-6-(4-chlorophenyl)-4-(2-(ethylamino)-2-oxoethyl)-1-methyl-4H-benzo[f][1,2,4]triazolo[4,3-a][1,4]diazepin-8-yl)oxy)hexyl)carbamoyl)phenyl)boronic acid]","Degradation of BRD4, combination with CRBN ligand [drawing 421]",[2]; Table 1,✓ (A black check mark indicates efficacy of 30% to 70% or higher protein degradation)
same,"Degradation of BRD4, combination with CRBN ligand [drawing 422]",[2]; Table 1,✓ (A black check mark indicates efficacy of 30% to 70% or higher protein degradation)
same,"Degradation of BRD4, combination with CRBN ligand [drawing 397]","[2]; Table 1, aromatic 1,2-diol- or hindered cis-1,2-diol-containing CRBN ligand drawn as drawing 397 (by the text apparently 8046)",✓ (A black check mark indicates efficacy of 30% to 70% or higher protein degradation)
same,"Degradation of BRD4, combination with MDM2 ligand [drawing 430]","[2]; Table 2, aromatic 1,2-diol-containing MDM2 ligand drawn as drawing 430 (by the text apparently 8313)",✓ (A black check mark indicates efficacy of 30% to 70% or higher protein degradation)
same,BRD4 degradation,[3]; BRD ligand (monomer) alone,no change in expression is observed
"CCNC(=O)C[C@@H]1N=C(c2ccc(Cl)cc2)c2cc(OCCOCCNC(=O)c3cccc(O)c3O)ccc2-n2c(C)nnc21 [BRD-N39, N-(2-(2-(((4S)-6-(4-chlorophenyl)-4-(2-(ethylamino)-2-oxoethyl)-1-methyl-4H-benzo[f][1,2,4]triazolo[4,3-a][1,4]diazepin-8-yl)oxy)ethoxy)ethyl)-2,3-dihydroxybenzamide]","Degradation of BRD4, combination with CRBN ligand [drawing 457]","[2]; Table 4, aryl-boronic acid-containing CRBN ligand drawn as drawing 457 (by the text apparently 8048)",✓ (A black check mark indicates efficacy of 30% to 70% or higher protein degradation)
same,"Degradation of BRD4, combination with MDM2 ligand [drawing 463]","[2]; Table 5, aryl-boronic acid-containing MDM2 ligand drawn as drawing 463 (apparently 8310)",✓ (A black check mark indicates efficacy of 30% to 70% or higher protein degradation)
same,"Degradation of BRD4, combination with MDM2 ligand [drawing 464]","[2]; Table 5, aryl-boronic acid-containing MDM2 ligand drawn as drawing 464 (apparently 8312)",✓ (A black check mark indicates efficacy of 30% to 70% or higher protein degradation)
same,suppression of SLC19A1 expression,"[1]; 10 μM each, with MDM2 ligand 8310",a rightward shift in the curve and an increase in the Ct values
same,suppression of SLC19A1 expression,"[1]; 10 μM each, with MDM2 ligand 8312",Complete suppression of SLC19A1 was evident
same,selectivity of degradation within the BRD protein family,[5],some selectivity for BRD4 over BRD2 and BRD3
